According to publication PMC12486159 (American journal of physiology. Renal physiology, 2025):

Molecular target: human FATP2 (Homo sapiens, UniProt O14975)
Experiment: BODIPY-FA uptake in FATP2-overexpressing HPCT cells, fluorescence plate reader
Type: cell-based

human FATP2, sequence (O14975 whole entry): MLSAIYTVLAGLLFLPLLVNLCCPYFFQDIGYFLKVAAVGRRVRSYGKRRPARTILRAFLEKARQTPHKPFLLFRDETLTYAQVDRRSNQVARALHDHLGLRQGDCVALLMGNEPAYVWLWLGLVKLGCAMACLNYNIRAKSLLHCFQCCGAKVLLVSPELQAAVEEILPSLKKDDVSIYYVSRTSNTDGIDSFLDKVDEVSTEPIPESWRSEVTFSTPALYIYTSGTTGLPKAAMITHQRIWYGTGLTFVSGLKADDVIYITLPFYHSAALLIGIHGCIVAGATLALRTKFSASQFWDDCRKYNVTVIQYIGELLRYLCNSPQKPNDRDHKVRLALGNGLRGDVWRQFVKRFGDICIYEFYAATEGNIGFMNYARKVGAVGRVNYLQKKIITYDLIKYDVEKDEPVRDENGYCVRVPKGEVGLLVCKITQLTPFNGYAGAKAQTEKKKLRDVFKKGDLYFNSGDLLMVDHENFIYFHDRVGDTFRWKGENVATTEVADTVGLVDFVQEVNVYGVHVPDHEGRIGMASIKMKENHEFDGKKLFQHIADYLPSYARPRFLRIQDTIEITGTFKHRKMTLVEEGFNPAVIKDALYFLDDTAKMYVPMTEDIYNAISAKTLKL

**Q.** With `O=C1Nc2ccc(Br)cc2C12NN=C(c1ccccc1)S2` (stereo not shown) [Lipofermata] as the compound, how does the IC50 read?
**A.** The IC50 was 5 µM.
